Values of other authors as cited in patent publication US6576223B2, “Insect repellent” (Karl Engelhard Fabrik Pharm Praparate GmbH & Co. KG., priority 1997, dated 2003).

What was measured:
[1] = concentrations of DEET exceeding 30%; monograph Diethyltoluamid, Bundesanzeiger No. 137

| Compound | side effects [1] | period of effectiveness (insects; DEET as alcohol solution applied to the skin, known agents) | repellent effect of the adjuvant itself (insects; adjuvant alone, EP 0 090 288) |
| --- | --- | --- | --- |
| CCN(CC)C(=O)c1cccc(C)c1 [DEET, N,N-diethyl-m-toluamide] | blistering, ulceration, and necroses can occur | about 5 hours | – |
| polyethylene glycol 400 [PEG-400] | – | – | no repellent effect |
